Where a name gives a salt, the structure may show the parent alone.
Row | SMILES | melting point [°C]
1 | C[Si](C)(C)c1ccc(Oc2nnc(Cl)cc2OC(=O)c2ccccc2)cc1 | 100 to 102
2 | Cc1ccccc1Oc1nnc(Cl)cc1OC(=O)N(C)C | 107 to 109
3 | CN(C)C(=O)Oc1cc(Cl)nnc1Oc1ccccc1C1CC1 | 137 to 138
4 | CN(C)C(=O)Oc1cc(Cl)nnc1Oc1cccc(C(F)(F)F)c1 | 92 to 93
5 | Cc1cccc(C2CC2)c1Oc1nnc(Cl)cc1OC(=O)N(C)C | 136 to 138
6 | CCN(CC)C(=O)Oc1cc(Cl)nnc1Oc1c(C)cccc1C1CC1 | 119 to 121
7 | Cc1cccc(C2CC2)c1Oc1nnc(Cl)cc1OC(=O)N(C(C)C)C(C)C | 103 to 105
8 | C[Si](C)(C)c1c(Cl)nnc(Oc2ccccc2)c1O | 119 to 120
9 | CC(C)(C)c1ccccc1Oc1nnc(Cl)c([Si](C)(C)C)c1O | 160 to 163
10 | Cc1cccc(C2CC2)c1Oc1nnc(Cl)cc1OC(=O)N(C)C(C)(C)C | 113 to 115
11 | Cc1cccc(C2CC2)c1Oc1nnc(Cl)cc1OC(=O)N(C)c1ccccn1 | 140 to 147
12 | CON(C)C(=O)Oc1cc(Cl)nnc1Oc1c(C)cccc1C1CC1 | 63 to 64.5
13 | Cc1cccc(C2CC2)c1Oc1nnc(Cl)cc1OC(=O)N(CCCl)CCCl | 166 to 167
14 | Cc1cccc(C2CC2)c1Oc1nnc(Cl)cc1OC(=O)N(CCC#N)CCC#N | 159 to 161
15 | Cc1cccc(C2CC2)c1Oc1nnc(Cl)cc1C(=O)[O-].[K+] | 187 to 189
16 | C[Si](C)(C)c1ccc(Oc2nnc(Cl)cc2O)cc1 | 197 to 199
17 | Cc1cccc(C2CC2)c1Oc1nnc(Cl)cc1O | 201 to 202
18 | Cc1ccc(S(=O)(=O)Oc2c(Cl)cnnc2Oc2ccccc2C)cc1 (as salt: benzene sulfonate) [Compound No. 66, 5-Chloro-3-(2-methylphenoxy)-4-pyridazinyl 4-methylbenzene sulfonate] | 140 to 143
19 | Cc1ccc(S(=O)(=O)Oc2ccccc2Oc2nnc(Cl)cc2OS(=O)(=O)c2ccc(C)cc2)cc1 (as salt: benzene sulfonate) [Compound No. 2233, 2-[(6-Chloro-4-{[(4-methylphenyl)sulfonyl]oxy}-3-pyridazinyl)oxy]phenyl 4-methylbenzene sulfonate] | 125.5 to 126.5
20 | O=S(=O)(Oc1cc(Cl)nnc1Oc1ccccc1C1CC1)C(F)(F)F (as salt: methanesulfonate) [Compound No. 2081, 6-Chloro-3-(2-cyclopropylphenoxy)-4-pyridazinyl trifluoromethanesulfonate] | 54 to 61
21 | Cc1ccccc1Oc1nnccc1O [Compound No. 5, 3-(2-Methylphenoxy)-4-pyridazinol] | 169 to 171
22 | CC(C)c1ccccc1Oc1nnccc1O [Compound No. 6, 3-(2-Isopropylphenoxy)-4-pyridazinol] | 181.5 to 182
23 | Cc1ccccc1Oc1nncc(Cl)c1O [Compound No. 45, 5-Chloro-3-(2-methylphenoxy)-4-pyridazinol] | 238 to 243
24 | Oc1cc(Cl)nnc1Oc1ccccc1 [Compound No. 123, 6-Chloro-3-phenoxy-4-pyridazinol] | 222 to 224
25 | Oc1cc(Cl)nnc1Oc1ccccc1F [Compound No. 124, 6-Chloro-3-(2-fluorophenoxy)-4-pyridazinol] | 210 to 212
26 | Oc1cc(Cl)nnc1Oc1ccccc1Cl [Compound No. 125, 6-Chloro-3-(2-chlorophenoxy)-4-pyridazinol] | 208 to 212
27 | Oc1cc(Cl)nnc1Oc1ccccc1Br [Compound No. 126, 3-(2-Bromophenoxy)-6-chloro-4-pyridazinol] | 201 to 203
28 | Oc1cc(Cl)nnc1Oc1ccccc1I [Compound No. 127, 6-Chloro-3-(2-iodophenoxy)-4-pyridazinol] | 216 to 217
